The values below come from PubChem BioAssay (NCI).

In general, TGI refers to the concentration giving total growth inhibition. Lower therefore signals greater sensitivity of the cells.

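Exposure lasted 48 hours, with cells grown in 96-well plates and compounds tested at five concentrations. TGI marks complete inhibition of growth.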

Test systems include BT-549 breast; COLO 205 colon; EKVX NSCLC; HCC-2998 colon; HL-60(TB) leukemia; HS 578T breast; IGROV1 ovarian; MALME-3M melanoma; MCF7 breast; MDA-MB-231 breast; MOLT-4 leukemia; NCI-H460 lung; NCI/ADR-RES ovarian; OVCAR-4 ovarian; RXF 393 renal; SK-MEL-2 melanoma; SNB-75 CNS; UACC-257 melanoma; K-562 leukemia; RPMI-8226 leukemia.
Common to all, as to experiment: DTP human tumour cell line panel, 48 h

On to `O=C(c1ccsc1)c1cc2c(s1)C(=O)c1ccsc1C2=O`, for which the TGI in the assay with BT-549 breast was 0.198 µM; in the assay with COLO 205 colon, 2.97 µM; with EKVX NSCLC, 0.373 µM; with HCC-2998 colon, 1.56 µM; in the assay on HL-60(TB) leukemia it was above 100 µM; in the assay with HS 578T breast it was 0.549 µM. Further, the concentration for total growth inhibition (TGI) in the assay with IGROV1 ovarian was 0.403 µM; with MALME-3M melanoma, 0.0845 µM; in the assay with MCF7 breast it was 0.383 µM; in the assay on MDA-MB-231 breast it was 0.496 µM; in the assay on MOLT-4 leukemia, above 100 µM; in the assay on NCI-H460 lung, 0.367 µM. Also, the concentration for total growth inhibition (TGI) in the assay with NCI/ADR-RES ovarian was 0.407 µM; in the assay on OVCAR-4 ovarian, 0.335 µM; with RXF 393 renal it was 0.385 µM; in the assay with SK-MEL-2 melanoma it was 0.982 µM; with SNB-75 CNS, 0.311 µM; with UACC-257 melanoma it was 0.324 µM.

As for `CCOP(=O)(OCC)/C(=C/c1ccccc1)CC(C)=O`, the concentration for total growth inhibition (TGI) in the assay with BT-549 breast was above 100 µM; in the assay with COLO 205 colon, above 100 µM; with EKVX NSCLC it was above 100 µM; with HCC-2998 colon, above 100 µM; in the assay on HL-60(TB) leukemia, 68.7 µM; in the assay on HS 578T breast it was above 100 µM. In addition, the total growth inhibition concentration (TGI) with IGROV1 ovarian, in the assay on K-562 leukemia, in the assay with MALME-3M melanoma, in the assay with MCF7 breast, in the assay on MDA-MB-231 breast and in the assay with MOLT-4 leukemia was above 100 µM throughout. For the same compound, the total growth inhibition concentration (TGI) in the assay with NCI-H460 lung, in the assay with NCI/ADR-RES ovarian, with OVCAR-4 ovarian, with RXF 393 renal, in the assay with SK-MEL-2 melanoma and in the assay on SNB-75 CNS was above 100 µM each time. The concentration for total growth inhibition (TGI) with UACC-257 melanoma is above 100 µM.

With `CC(C)(C)OC(=O)N1C[C@H](CC(=O)OCc2ccccc2)C[C@H]1C(=O)OCC(Cl)(Cl)Cl`, the TGI in the assay on BT-549 breast is above 50 µM; in the assay with COLO 205 colon, 9.38 µM; in the assay with EKVX NSCLC it was above 50 µM; in the assay with HCC-2998 colon it was 45.3 µM; in the assay on HL-60(TB) leukemia, above 50 µM; in the assay on HS 578T breast, above 50 µM. The TGI is above 50 µM with K-562 leukemia; 25.3 µM with MALME-3M melanoma; above 50 µM in the assay on MCF7 breast; above 50 µM in the assay on MDA-MB-231 breast; 3.36 µM in the assay on MOLT-4 leukemia; above 50 µM in the assay on NCI-H460 lung. Besides, the total growth inhibition concentration (TGI) in the assay on NCI/ADR-RES ovarian was above 50 µM; in the assay with OVCAR-4 ovarian it was above 50 µM; in the assay with RXF 393 renal, above 50 µM; with SK-MEL-2 melanoma, 23 µM; in the assay with SNB-75 CNS it was above 50 µM; in the assay on UACC-257 melanoma it was 31.3 µM.

For `COc1cc(/C=C2\N=C(c3ccccc3)N(c3nc4c(Cl)cc(Cl)cc4s3)C2=O)ccc1O`, the TGI with BT-549 breast was 77.4 µM; in the assay with COLO 205 colon it was above 100 µM; in the assay with EKVX NSCLC, above 100 µM; with HCC-2998 colon, 37.8 µM; in the assay on HL-60(TB) leukemia, 39.7 µM; in the assay with HS 578T breast, 57.2 µM. The TGI in the assay with IGROV1 ovarian is above 100 µM; with K-562 leukemia, above 100 µM; with MCF7 breast, above 100 µM; with MDA-MB-231 breast it was above 100 µM; with MOLT-4 leukemia it was 43.3 µM; in the assay with NCI-H460 lung, above 100 µM. In addition, the TGI with NCI/ADR-RES ovarian is above 100 µM; with OVCAR-4 ovarian, above 100 µM; with RPMI-8226 leukemia, 47.4 µM; with RXF 393 renal, 49.1 µM; in the assay with SK-MEL-2 melanoma, 55.1 µM; in the assay on SNB-75 CNS it was 75 µM. In the assay on UACC-257 melanoma, this compound came in with a TGI above 100 µM.

`O=C(COC(c1ccc(F)cc1)c1ccc(F)cc1)N1CCN(CCCc2ccccc2)CC1`: the TGI amounted to 13.7 µM with BT-549 breast; 3.36 µM with COLO 205 colon; 17.3 µM in the assay with EKVX NSCLC; 13 µM in the assay with HCC-2998 colon; 14.1 µM with HL-60(TB) leukemia; 59.6 µM in the assay on HS 578T breast. Besides, the total growth inhibition concentration (TGI) in the assay with IGROV1 ovarian was 19 µM; in the assay with K-562 leukemia, above 100 µM; in the assay with MALME-3M melanoma, 17.4 µM; with MCF7 breast, 12.6 µM; in the assay with MDA-MB-231 breast, 11.3 µM; in the assay on MOLT-4 leukemia it was above 100 µM. Moreover, the TGI with NCI-H460 lung worked out at 13.5 µM; in the assay on NCI/ADR-RES ovarian, 12.8 µM; in the assay with OVCAR-4 ovarian, 12.6 µM; in the assay with RPMI-8226 leukemia, 26.3 µM; with RXF 393 renal, 8.1 µM; in the assay on SK-MEL-2 melanoma, 15.4 µM. In the assay on UACC-257 melanoma, this compound had a total growth inhibition concentration (TGI) of 11.3 µM.

In the case of `COc1ccc2cc(-c3ccc(OC)c(OC)c3)c(=O)oc2c1`, the TGI with BT-549 breast, with COLO 205 colon, with EKVX NSCLC, in the assay with HCC-2998 colon, in the assay with HL-60(TB) leukemia and with HS 578T breast was above 100 µM each time. Besides, the TGI in the assay with IGROV1 ovarian, with K-562 leukemia, in the assay with MALME-3M melanoma, with MCF7 breast, in the assay with MDA-MB-231 breast and with MOLT-4 leukemia was above 100 µM throughout. The total growth inhibition concentration (TGI) with NCI-H460 lung was above 100 µM; in the assay on NCI/ADR-RES ovarian, above 100 µM; in the assay with OVCAR-4 ovarian, above 100 µM; in the assay with RPMI-8226 leukemia, above 100 µM; in the assay with RXF 393 renal, 68.3 µM; in the assay with SK-MEL-2 melanoma, above 100 µM. For the same compound, the TGI in the assay with UACC-257 melanoma was above 100 µM.

As to `Brc1ccc(-c2ccc(-c3ccc(-c4ccc(Br)s4)s3)s2)s1`, the TGI in the assay with BT-549 breast, with COLO 205 colon, in the assay on EKVX NSCLC, in the assay with HCC-2998 colon, in the assay on HL-60(TB) leukemia and in the assay with HS 578T breast was above 100 µM each time. Further, the concentration for total growth inhibition (TGI) in the assay with IGROV1 ovarian, in the assay on K-562 leukemia, with MCF7 breast, with MDA-MB-231 breast, in the assay with MOLT-4 leukemia and in the assay on NCI-H460 lung was above 100 µM in each case. For the same compound, the TGI in the assay with NCI/ADR-RES ovarian, with OVCAR-4 ovarian, in the assay with RPMI-8226 leukemia, in the assay on RXF 393 renal, with SNB-75 CNS and in the assay with UACC-257 melanoma was above 100 µM throughout.

`CC(=O)O[C@@]12[C@@H]3O[C@@]4(O)C[C@]5(C)[C@H]6C[C@@](C(C)C)(O[C@H]5c5ccoc5)O[C@H]1[C@]6(C4)O[C@]2(O)C(C)=CC3(C)C`: the concentration for total growth inhibition (TGI) in the assay on BT-549 breast, with COLO 205 colon, in the assay with EKVX NSCLC, in the assay on HCC-2998 colon, in the assay with HL-60(TB) leukemia and with HS 578T breast was above 100 µM in each case. The total growth inhibition concentration (TGI) in the assay with IGROV1 ovarian, in the assay with K-562 leukemia, with MALME-3M melanoma, with MCF7 breast, in the assay on MDA-MB-231 breast and in the assay with MOLT-4 leukemia was above 100 µM each time. The TGI in the assay on NCI/ADR-RES ovarian, with OVCAR-4 ovarian, in the assay with RPMI-8226 leukemia, in the assay on RXF 393 renal, in the assay on SK-MEL-2 melanoma and in the assay on SNB-75 CNS was above 100 µM in each case. The concentration for total growth inhibition (TGI) in the assay on UACC-257 melanoma was above 100 µM.

With `NC(=S)SC1=NNC2(C(=O)N1)c1ccccc1-c1ccccc12`, the TGI with BT-549 breast, with COLO 205 colon, with EKVX NSCLC, in the assay on HCC-2998 colon, in the assay with HL-60(TB) leukemia and with HS 578T breast was above 10 µM each time. Also, the TGI in the assay on IGROV1 ovarian, with MALME-3M melanoma, with MCF7 breast, with MDA-MB-231 breast, in the assay on NCI-H460 lung and with NCI/ADR-RES ovarian was above 10 µM each time. The TGI with OVCAR-4 ovarian, in the assay on RPMI-8226 leukemia, with RXF 393 renal, in the assay on SNB-75 CNS and with UACC-257 melanoma was above 10 µM throughout.

Turning to `Nc1cc(OCc2ccccc2)c(OCc2ccccc2)cc1C=O`, the TGI in the assay with BT-549 breast is 37.3 µM; with COLO 205 colon it was 77.3 µM; with EKVX NSCLC, above 100 µM; in the assay on HCC-2998 colon, 34.5 µM; with HL-60(TB) leukemia it was 40 µM; in the assay on HS 578T breast, above 100 µM. For the same compound, the concentration for total growth inhibition (TGI) was above 100 µM in the assay on IGROV1 ovarian; above 100 µM with K-562 leukemia; above 100 µM in the assay with MCF7 breast; above 100 µM with MDA-MB-231 breast; above 100 µM in the assay on MOLT-4 leukemia; 52.8 µM in the assay with NCI-H460 lung. Further, the total growth inhibition concentration (TGI) with NCI/ADR-RES ovarian, in the assay with RPMI-8226 leukemia, with SK-MEL-2 melanoma, with SNB-75 CNS and with UACC-257 melanoma was above 100 µM in each case.

Regarding `CCOC(=O)CCC(NC(=O)N1CCN(c2c(C)nc(C)[nH]c2=O)CC1)C(=O)OCC` (stereo unspecified), the TGI with BT-549 breast, with COLO 205 colon, with EKVX NSCLC, in the assay on HCC-2998 colon, in the assay with HL-60(TB) leukemia and in the assay with HS 578T breast was above 100 µM in each case. In addition, the TGI in the assay on IGROV1 ovarian, in the assay with K-562 leukemia, with MALME-3M melanoma, in the assay with MCF7 breast, in the assay with MDA-MB-231 breast and in the assay on MOLT-4 leukemia was above 100 µM each time. In addition, the TGI in the assay with NCI-H460 lung, in the assay on NCI/ADR-RES ovarian, in the assay with OVCAR-4 ovarian, in the assay on RPMI-8226 leukemia, in the assay on RXF 393 renal and in the assay on UACC-257 melanoma was above 100 µM each time.
